Like-named read-outs stand apart in the source and are kept apart here.
What was measured:
[1] = test system: Phosphorylation of ERK1/2 in AsPC-1 cells; assay: Phospho-ERK1/2 MSD Assay (AsPC-1 cells); assay type: cell-based; conditions: 2 hours treatment, read-out: p-ERK (AsPC-1 cells) IC50
Summary of the method: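 Read-out: MSD electrochemiluminescent detection of phosphorylated ERK1/2 in whole-cell lysates, fitted to a 4-parameter logistic curve for IC50. Prior to lysis, AsPC-1 cells (25,000 per well) received a 2 h compound dose-response at 37 °C.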

[2] = test system: Phosphorylation of ERK1/2 in A-427 cells; assay: Phospho-ERK1/2 MSD Assay (A-427 cells); assay type: cell-based; conditions: 2 h treatment, read-out: p-ERK (A427 cells) IC50
Summary of the method: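 ERK1/2 phosphorylation measured by Meso Scale whole-cell lysate assay after A-427 cells were exposed to a titration of compound for 2 h at 37 °C.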

[3] = biological target: His-tagged KRAS G12D protein (Homo sapiens, UniProt P01116, G12D); assay: KRAS G12D TR-FRET Assay; assay type: binding
Sequence of His-tagged KRAS G12D protein (P01116 1-188 isoform P01116-2 G12D): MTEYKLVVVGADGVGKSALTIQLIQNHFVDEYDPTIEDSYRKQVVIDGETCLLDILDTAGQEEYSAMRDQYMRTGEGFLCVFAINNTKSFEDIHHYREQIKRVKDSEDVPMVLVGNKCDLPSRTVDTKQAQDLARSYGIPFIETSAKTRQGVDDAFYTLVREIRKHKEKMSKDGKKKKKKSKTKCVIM

[4] = biological target: GDP-bound KRAS protein (aa 1-169), containing both G12D and C118A amino acid substitutions (Homo sapiens, UniProt P01116, C118A/G12D); assay: KRAS G12D Coupled Nucleotide Exchange Assay; assay type: biochemical; conditions: 2 h compound pre-incubation
Sequence of GDP-bound KRAS protein (aa 1-169), containing both G12D and C118A amino acid substitutions (P01116 1-169 isoform P01116-2 G12D/C118A): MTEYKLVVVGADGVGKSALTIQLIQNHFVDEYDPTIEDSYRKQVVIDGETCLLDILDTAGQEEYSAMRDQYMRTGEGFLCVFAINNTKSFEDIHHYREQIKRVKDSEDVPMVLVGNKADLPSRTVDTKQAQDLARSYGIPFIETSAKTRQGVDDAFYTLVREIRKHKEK
Experimental: Following compound pre-incubation, purified SOS protein (aa 564-1049) and GTP (Roche 10106399001) were added to the assay wells and incubated for an additional 30 min. […] The assay plates were then read on a PerkinElmer EnVision Multilabel Reader, using AlphaScreen® technology, and data were analyzed using a 4-parameter logistic model to calculate IC50 values.

SMILES	IC50 ([1]; Homo sapiens, ASPC1, 2 h) [nM]	IC50 ([2]; Homo sapiens, A-427, 2 h) [nM]	IC50 [3] [nM]	Avg 2 h Coupled Exchange IC50 [4] [nM]	IC50 [1] [nM]	IC50 [2] [nM]	IC50 ([4]; read-out: Avg 2 h Coupled Exchange IC50) [nM]
Oc1cc(-c2c(F)cc3c(N4C[C@H]5CC[C@@H](C4)N5)nc(OC[C@@]45CCCN4C[C@H](F)C5)nc3c2F)c2c(F)c(F)ccc2c1 [Example 84, 4-(4-((1R,5S)-3,8-diazabicyclo[3.2. 1]octan-3-yl)-6,8-difluoro-2-(((2R,7aS)-2-fluorotetrahydro-1H-pyrrolizin-7a(5H)-yl)methoxy)quinazolin-7-yl)-5,6-difluoronaphthalen-2-ol]	22	5	4	4	–	–	–
Cc1c(Cl)cc2[nH]ncc2c1-c1ccc2c(N3C[C@H]4CC[C@@H](C3)N4)nc(OC[C@@]34CCCN3C[C@H](F)C4)nc2c1F [Example 192, 4-((1R,5S)-3,8-Diazabicyclo[3.2.1]octan-3-yl)-7-(6-chloro-5-methyl-1H-indazol-4-yl)-8-fluoro-2-(((2R,7aS)-2-fluorotetrahydro-1H-pyrrolizin-7a(5H)-yl)methoxy)quinazoline]	532	150	4	2	–	–	–
Cc1ccc2cnn(C)c2c1-c1c(F)cc2c(N3C[C@H]4CC[C@@H](C3)N4)nc(OC[C@@]34CCCN3C[C@H](F)C4)nc2c1F [Example 164, 4-((1R,5S)-3,8-diazabicyclo[3.2.1]octan-3-yl)-7-(1,6-dimethyl-1H-indazol-7-yl)-6,8-difluoro-2-(((2R,7aS)-2-fluorotetrahydro-1H-pyrrolizin-7a(5H)-yl)methoxy) quinazoline]	725	862	7	6	–	–	–
CCc1c(F)ccc2cc(O)cc(-c3cc(C)c4c(N5C[C@H]6CC[C@@H](C5)N6)nc(OC[C@@]56CCCN5C[C@H](F)C6)nc4c3F)c12 [Example 230]	–	–	4	–	68	33	1
CCc1c(F)ccc2cc(O)cc(-c3ccc4c(N5C[C@H]6CC[C@@H](C5)N6)nc(O[C@@H](C)C(C)(C)O)nc4c3F)c12 [Example 136, 4-(4-((1R,5S)-3,8-diazabicyclo[3.2.1]octan-3-yl)-8-fluoro-2-(((S)-3-hydroxy-3-methylbutan-2-yl)oxy)quinazolin-7-yl)-5-ethyl-6-fluoronaphthalen-2-ol]	4160	5350	56	21	–	–	–
C#Cc1c(F)ccc2cc(O)cc(-c3ccc4c(N5C[C@H]6CC[C@@H](C5)N6)nc(OC[C@@]56CCCN5C[C@H](F)C6)nc4c3F)c12 [Example 186, 4-(4-((1R,5S)-3,8-diazabicyclo[3.2.1]octan-3-yl)-8-fluoro-2-(((2R,7aS)-2-fluorotetrahydro-1H-pyrrolizin-7a(5H)-yl)methoxy)quinazolin-7-yl)-5-ethynyl-6-fluoronaphthalen-2-ol]	5	1	3	3	–	–	–
Cc1c(-c2cc(O)cc3cccc(Cl)c23)ccc2c(N3[C@@H]4CC[C@H]3CNC4)nc(OC[C@@]34CCCN3C[C@H](F)C4)nc12 [Example 98, 4-(4-((1R,5S)-3,8-diazabicyclo[3.2. 1]octan-8-yl)-2-(((2R,7aS)-2-fluorotetrahydro-1H-pyrrolizin-7a(5H)-yl)methoxy)-8-methylquinazolin-7-yl)-5-chloronaphthalen-2-ol]	1050	587	13	13	–	–	–
Oc1cc(-c2ccc3c(N4[C@@H]5CNC[C@H]4COC5)nc(OC[C@@]45CCCN4C[C@H](F)C5)nc3c2F)c2ccccc2c1 [Example 2, 4-(4-((1R,5S)-3-oxa-7,9-diazabicyclo[3.3. 1]nonan-9-yl)-8-fluoro-2-(((2R,7aS)-2-fluorotetrahydro-1H-pyrrolizin-7a(5H)-yl)methoxy)quinazolin-7-yl)naphthalen-2-ol]	721	222	7	4	–	–	–
Oc1cc(-c2ccc3c(N4C[C@@H]5CC[C@H]4CN5)nc(OC[C@@]45CCCN4C[C@H](F)C5)nc3c2)c2c(F)c(F)ccc2c1 [Example 113, 4-(4-((1S,4S)-2,5-diazabicyclo[2.2.2]octan-2-yl)-2-(((2R,7aS)-2-fluorotetrahydro-1H-pyrrolizin-7a(5H)-yl)methoxy)quinazolin-7-yl)-5,6-difluoronaphthalen-2-ol]	453	102	3	2	–	–	–
Oc1cc(-c2c(F)cc3c(N4[C@@H]5CC[C@H]4CNC5)nc(OC[C@@]45CCCN4C[C@H](F)C5)nc3c2F)c2ncccc2c1 [Example 27, 8-(4-((1R,5S)-3,8-diazabicyclo[3.2. 1]octan-8-yl)-6,8-difluoro-2-(((2R,7aS)-2-fluorotetrahydro-1H-pyrrolizin-7a(5H)-yl)methoxy)quinazolin-7-yl)quinolin-6-ol]	5230	865	47	21	–	–	–
Oc1cc(-c2ccc3c(N4[C@@H]5CNC[C@H]4COC5)nc(OCC45CCCN4CC(F)(F)C5)nc3c2F)c2ccccc2c1 (stereo partly drawn) [Example 10, 4-(4-((1R,5S)-3-oxa-7,9-diazabicyclo[3.3. 1]nonan-9-yl)-2-((2,2-difluorotetrahydro-1H-pyrrolizin-7a(5H)-yl)methoxy)-8-fluoroquinazolin-7-yl)naphthalen-2-ol]	6270	5240	106	132	–	–	–
CCc1c(F)ccc2cc(O)cc(-c3ccc4c(N5C[C@H]6CC[C@@H](C5)N6)nc(OC[C@@]56CCCN5C[C@H](F)C6)nc4c3C)c12 [Example 95, 4-(4-((1R,5S)-3,8-diazabicyclo[3.2. 1]octan-3-yl)-2-(((2R,7aS)-2-fluorotetrahydro-1H-pyrrolizin-7a(5H)-yl)methoxy)-8-methylquinazolin-7-yl)-5-ethyl-6-fluoronaphthalen-2-ol]	230	199	10	10	–	–	–
Oc1cc(-c2cc3nc(OC[C@@]45CCCN4C[C@H](F)C5)nc(N4C[C@H]5CC[C@@H](C4)N5)c3cc2F)c2c(F)c(F)ccc2c1 [Example 82, 4-(4-((1R,5S)-3,8-diazabicyclo[3.2. 1]octan-3-yl)-6-fluoro-2-(((2R,7aS)-2-fluorotetrahydro-1H-pyrrolizin-7a(5H)-yl)methoxy)quinazolin-7-yl)-5,6-difluoronaphthalen-2-ol]	138	42	2	2	–	–	–
CCc1c(F)ccc2cc(O)cc(-c3c(F)cc4c(N5C[C@H]6CC[C@@H](C5)N6)nc(OCC(O)(CC)CC)nc4c3F)c12 [Example 123, 4-(4-((1R,5S)-3,8-diazabicyclo[3.2.1]octan-3-yl)-2-(2-ethyl-2-hydroxybutoxy)-6,8-difluoroquinazolin-7-yl)-5-ethyl-6-fluoronaphthalen-2-ol]	2240	1990	12	12	–	–	–
Oc1cc(-c2ccc3c(N4C[C@H]5CC[C@@H](C4)N5)nc(OC[C@@]45CCCN4C[C@H](F)C5)nc3c2)c2ccccc2c1 [Example 41, 4-(4-((1R,5S)-3,8-diazabicyclo[3.2. 1]octan-3-yl)-2-(((2R,7aS)-2-fluorotetrahydro-1H-pyrrolizin-7a(5H)-yl)methoxy)quinazolin-7-yl)naphthalen-2-ol]	182	74	2	2	–	–	–
CCc1cccc2cc(O)cc(-c3c(F)cc4c(N5C[C@@H]6CC[C@H]5CN6)nc(OC[C@@]56CCCN5C[C@H](F)C6)nc4c3F)c12 [Example 109, 4-(4-((1S,4S)-2,5-Diazabicyclo[2.2.2]octan-2-yl)-6,8-difluoro-2-(((2R,7aS)-2-fluorotetrahydro-1H-pyrrolizin-7a(5H)-yl)methoxy)quinazolin-7-yl)-5-ethylnaphthalen-2-ol]	29	17	4	3	–	–	–
CCc1cccc2cccc(-c3ccc4c(N5C[C@H]6CC[C@@H](C5)N6)nc(OC[C@@]56CCCN5C[C@H](F)C6)nc4c3C)c12 [Example 59, 4-((1R,5S)-3,8-diazabicyclo[3.2. 1]octan-3-yl)-7-(8-ethylnaphthalen-1-yl)-2-(((2R,7aS)-2-fluorotetrahydro-1H-pyrrolizin-7a(5H)-yl)methoxy)-8-methylquinazoline]	4160	3380	8	11	–	–	–
Oc1cc(-c2ccc3c(N4C[C@@H]5C[C@H]4CN5)nc(OC[C@@]45CCCN4C[C@H](F)C5)nc3c2F)c2ccccc2c1 [Example 50, 4-(4-((1S,4S)-2,5-diazabicyclo[2.2. 1]heptan-2-yl)-8-fluoro-2-(((2R,7aS)-2-fluorotetrahydro-1H-pyrrolizin-7a(5H)-yl)methoxy)quinazolin-7-yl)naphthalen-2-ol]	4470	1010	11	7	–	–	–

Source: patent publication US20250059205A1, “Heterocyclic Compounds and Methods of Use” (AMGEN INC., priority 2021, published 2025)
